Measurements taken from patent publication US9403806B1, “Cognition enhancing compounds and compositions, methods of making, and methods of treating” (NeuroSolis, Inc., priority 2010, dated 2016).

Assays:
[1] = target: T1, rat M1 receptors (Rattus norvegicus, UniProt P08482); assay: PI turnover (inositol phosphate production) in M1-CHO cells; format: cell-based; conditions: mean Smax relative to carbachol (100.0); CHO cells expressing rat M1
T1 construct: host or cells: CHO (M1-CHO)
T1 sequence (P08482 1-460): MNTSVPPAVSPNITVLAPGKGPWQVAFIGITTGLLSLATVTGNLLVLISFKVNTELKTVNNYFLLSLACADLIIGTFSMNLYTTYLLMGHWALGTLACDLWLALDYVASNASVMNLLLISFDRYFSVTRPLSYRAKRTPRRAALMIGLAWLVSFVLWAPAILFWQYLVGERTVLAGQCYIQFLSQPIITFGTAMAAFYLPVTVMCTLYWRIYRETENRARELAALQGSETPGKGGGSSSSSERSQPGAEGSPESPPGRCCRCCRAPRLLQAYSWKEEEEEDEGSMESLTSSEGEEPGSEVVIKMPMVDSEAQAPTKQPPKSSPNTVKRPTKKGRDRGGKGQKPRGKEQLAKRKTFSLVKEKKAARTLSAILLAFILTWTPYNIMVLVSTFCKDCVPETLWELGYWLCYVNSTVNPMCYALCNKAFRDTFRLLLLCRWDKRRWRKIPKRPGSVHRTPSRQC
Procedure: The medium was changed to 70 μL/well of inositol-free DMEM containing 2 mM glutamine, 10% FBS and 10 μCi/ml of [3H]-inositol (PE:cat # NET114A250UC), incubated overnight as above, then 100 μL of a solution of the test compound in HBSS containing 10 mM LiCl and 20 mM HEPES, pH 7.4 was added, incubation was continued for 60 min under the above conditions, and the test was stopped by removing the test compound and replacing with 100 μL of 50 mM formic acid in water at 4° C. […] The compounds in Table 1 are all dihydropyrimidine-oxadiazoles which vary only at the oxadiazole side chain.

[2] = tested on: healthy male volunteer human subjects; assay: Monitoring of cholinergic side effects in healthy volunteers; format: in vivo; conditions: 6 subjects
Procedure: (§1) A single 5 mg capsule or 5×0.2 mg capsules (1 mg total dose) were administered orally to healthy male volunteer human subjects with 125 ml of water. Six such subjects receiving the 5 mg dose, and a different 6 subjects received the 1 mg dose.
Subjects were monitored, among other things, for typical signs of muscarinic cholinergic action, such as increased salivation, lachrimation and diaphoresis.

[3] = Serum pharmacokinetics of immediate release capsules in healthy volunteers; format: in vivo, human; conditions: 5 mg dose cohort, 6 subjects
Procedure: The hydrochloride salt of MCD-386 (“MCD-386 HCl”) was formulated with the following excipients and loaded into #3 hard gelatin capsules (5 mg dose) or #2 hard gelatin capsules (0.2 mg dose).
as §1
Venous blood samples were drawn at various intervals after dosing from each subject into standard tubes for bioanalytical and pharmacokinetic analysis. The blood was allowed to clot, and the serum separated, using common clinical laboratory techniques. Serum samples were stored at −20 deg C. until used for analysis.
MCD-386 HCl, which exists in serum principally as the protonated form of MCD-386, was assayed in clinical serum samples as follows. […] The MS/MS transitions monitored were 181.1 m/z to 111.0 m/z for MCD-386 HCl and 186.1 m/z to 111.1 m/z for the internal standard, D5-MCD-386 HCl. […] The lower limit of quantitation (LLOQ) was 0.100 ng MCD-386 HCl per mL of serum. MCD-386 HCl concentrations are expressed as free base. […]
The bioanalytical results were analyzed using Win Nonlin software and common pharmacokinetic methods known to those skilled in the art.

[4] = tested on: CD-I mice; assay: Apomorphine induced climbing model of psychosis; format: in vivo; conditions: mice, sc, apomorphine 2 mg/kg (FIG. 1)
Procedure: As described in Costall et. al. European Journal of Pharmacology 1978, 50, 39. individual CD-I mice, 1-2 months old, were placed in a cylindrical wire mesh cage (13.2 cm high×13.2 cm diameter) constructed of steel wire 1 mm thick spaced at 1.2 cm^2. Cylinders were placed in a standard OptiMICE mouse cage (29×32×9×29 cm and 14 cm high) with adequate wood chip bedding provided. Observations of climbing (defined as 3 or more paws of the ground) were carried out every 5 minutes at a duration of 1 minute for […]. Animals were injected subcutaneously under isoflurane anesthesia with test compounds, reference compounds, which included clozapine, haloperidol, olanzapine and xanomeline, or PBS as a control. This was followed 5 minutes later by 2 mg/kg apomorphine hydrochloride. All drugs were dissolved in PBS or a mixture of (by volume) 96% PBS and 4% hydroxypropyl-beta-cyclodextrin, and dosed at a rate of 5 ml per kilogram of body weight. Following injections, animals were replaced in the mesh cages and observed for climbing (defined as 3 or more paws off the ground) every 5 minutes for 1 minute for 60 minutes after dosing.

- M1/CHO PI turnover Relative Mean Smax [1]: 70.0
Compound: CCc1noc(C2CN=CNC2)n1 (centres unmarked) [MCD-386, 3-ethyl-5-(1,4,5,6-tetrahydropyrimidin-5-yl)-1,2,4-oxadiazole]
- observable cholinergic side effects ([2]; 1 mg total oral dose cohort): none of the subjects in the 1 mg total dose cohort experienced any observable cholinergic side effects
- observable cholinergic side effects ([2]; 5 mg oral dose cohort): four subjects showed signs of muscarinic cholinergic activity
- main metabolite in serum samples [3]: identified in the serum samples of five out of six subjects
- activity in the apomorphine induced climbing model [4]: inactive
